Data as given in patent publication US5763194A, “Cell separation device” (Unisearch Limited, priority 1993, dated 1998).

System: CD34+ cells
Experiment: Separation of CD34+ cells from mobilised blood using shear fractionation and pre-treatment with chymopapain
Assay type: cell-based, human (patient)
From the text: Cells bound to the semi-permeable substrate of the present invention may be pre-treated with a cell-releasing agent prior to removal by shear stress. The proteolytic enzyme chymopapain has been used to assist the removal of CD34^+ cells bound to a hollow fibre apparatus of the present invention.
A mononuclear cell concentrate was collected from a patient undergoing peripheral stem cell mobilisation with cyclophosphamide and G-CSF.
A Cuprophan hollow-fibre module (binding area ^~ 500 cm^2) was derivatised with antiCD34 monoclonal antibody (clone 9e5) using the hydrazide method as described previously with the following change in protocl. Cuprophan was derivatised with 25% ethylene glycol diglycidyl ether for 2 hours at room temperature.
A total of 1.7×10^8 cells in 4 mls of phosphate buffered saline with 0.5% human Ig and 0.5% bovine serum albumin added was injected into the vertically aligned module using blind-ended filtration. Residual cells in the inlet tubing were flushed with a further 0.5 ml of buffer (blind-ended filtration). The entire loading process took less than 8 minutes. Cells were loaded at approximately 340,000 cells/cm^2.
For cell deposition within the fibre lumen, the module was rotated into the horizontal position. After 4 minutes of settling time, the module was rotated around its long axis over a 12 minute period (2 full revolutions).
For cell recovery the module was returned to the vertical position. The CD34 depleted cell population was recovered in successive 10 ml fractions by incrementing shear stress up to 100 dynes/cm (Fraction numbers 1-5).
Following this, attached cells were incubated with the proteolytic enzyme Chymopapain (DISCASE™) at 400 pKat/ml. The incubation period lasted 20 minutes. During this time released cells were collected at low shear stress (0.2 dynes/cm^2, Fraction 6). Shear fractionation was then used to further purify treated cells. 10 ml fractions were collected at shear stresses of 10, 50 and 100 dynes/cm2.

[1] = Fraction 6, chymopapain + 0.2 dynes/cm^2
[2] = Fraction 7, after chymopapain, 10 dynes/cm^2
[3] = Fraction 8, after chymopapain, 50 dynes/cm^2
[4] = Fraction 9, after chymopapain, 100 dynes/cm^2
[5] = Fraction 10, after chymopapain, 100 dynes/cm^2
[6] = Fraction 11, after chymopapain, ~1000 dynes/cm^2 (3% dextran T2000)

Substance: chymopapain: proteolytic enzyme Chymopapain (DISCASE™)
- CD34+ incidence [1]: 93.1%
- Number of CD34+ cells [1]: 640,000
- Total number of cells [1]: 687,000
- CD34+ incidence [2]: 86.1%
- Number of CD34+ cells [2]: 1,770,000
- Total number of cells [2]: 2,060,000
- CD34+ incidence [3]: 1.91%
- Number of CD34+ cells [3]: 45,100
- Total number of cells [3]: 2,360,000
- CD34+ incidence [4]: 1.19%
- Number of CD34+ cells [4]: 12,400
- Total number of cells [4]: 1,040,000
- CD34+ incidence [5]: 0.54%
- Number of CD34+ cells [5]: 3,060
- Total number of cells [5]: 567,000
- CD34+ incidence [6]: 0.31%
- Number of CD34+ cells [6]: 2,050
- Total number of cells [6]: 660,000
- CD34 antigen expression of released cells (flow cytometry (BG12-PE), chymopapain released cells): 150-1600 channels
- purity of fractions 6 and 7 (fractions 6 and 7): at least 90%
- separation yield (CD34+ cells recovered/CD34+ cells input) (fractions 6 and 7 pooled): 53%
